According to PubChem BioAssay AID1963847 (Molecular Pharmacology Branch, DTP, NCI, 2024):
Values joined by “and” are separate entries in the source; they are usually repeats but may differ in a detail not shown here. Equal entries are not always repeated.

Test system: 415267-285-R-J2-PDC complex spheroid viability
Assay: Anticancer human tumor 415267-285-R-J2-PDC patient-derived breast carcinoma cell line growth inhibition [POLQ]
Conditions: for viability, T/C: stronger effect = lower value
Experimental: Multicellular complex tumor spheroid response to Polymerase (POL) inhibitors (novobiocin, ART-558, RP6685) in combination with a variety of drugs and investigational agents in selected tumor cell lines
The POL inhibitors (novobiocin, ART-558, and RP6685) were evaluated both individually and in combination with standard of care and investigational anticancer small molecules within a complex spheroid model of solid tumors. . Complex spheroids include a stromal component modeled by human endothelial cells (HUVEC) and fibroblasts modeled by human mesenchymal stem cells (MSCs). The concentration ranges selected for each drug and investigational agent were based upon clinically achievable concentrations if the clinical Cmax of the agent was known.
Compounds. The drugs and investigational agents: novobiocin (NSC847541), ART-558 (NSC835418), RP-6685 (NSC848927), peposertib (NSC802822), ceralasertib (NSC780249), elimusertib (NSC800525), camonsertib (NSC841442), AZD-1390 (NSC803789), olaparib (NSC753686), talazoparib (NSC767125), rucaparib (NSC756644), sotorasib (NSC818433), MRTX-1133 (NSC836407), SN-38 (NSC673596), topotecan (NSC609699), epotoside (NSC141540), doxorubicin (NSC123127), gemcitabine (NSC613327), 5-fluorouracil (NSC19893), paclitaxel (NSC125973), vemurafenib (NSC761431), MSA-2 (NSC828583), SN-011 (NSC837082), adavosertib (NSC754352), prexasertib (NSC758257), carboplatin (NSC241240) and oxaliplatin (NSC266046), were obtained from the National Cancer Institute (NCI) Developmental Therapeutics Program Chemical Repository (21). The FDA-approved anticancer drug set is available from the Developmental Therapeutics Program at https://dtp.cancer.gov/organization/dscb/obtaining/. […] The stock solutions were prepared in dimethyl sulfoxide (DMSO, Sigma-Aldrich, St. Louis, MO, cat. D2650), except for the platinum compounds which were prepared in saline (Quality Biological, Gaithersburg, MD, cat. 114-055-101), at 800-fold the tested concentration and stored at -70 degrees C prior to their use. All drugs and investigational agents were tested over a range starting from a high concentration at or near the clinical Cmax and decreasing in half-log increments. If the clinical Cmax for an agent had not been determined, the highest concentration tested was 10 microM, except for SN-38, which was tested at a high concentration of 1 microM.
Cell Culture. All cells were maintained in an incubator at 37 degrees C and 5% CO2 with 95% humidity. The PDC lines were cultured according to standard operating procedures established by the NCI PDMR (https://pdmr.cancer.gov). Table 3 of the manuscript, lists the cell lines along with the number of the three cell types plated to form the mct-spheroids and media for tumor cell growth. After thawing, all PDC lines, except 997537-175-T-J1-PDC and 415267-285-R-J2-PDC, were cultured in Matrigel-coated flasks prepared with a working solution of 1X Ham's F-12 nutrient mix, without supplementation (Thermo Fisher Scientific, cat. 11765054), 100 U/mL penicillin-streptomycin (Thermo Fisher Scientific, cat. 15140122), and 2.5% Matrigel (Corning Inc., Corning, NY, cat. 354248) for the first three passages. The two PDC lines 997537-175-T-J1-PDC and 415267-285-R-J2-PDC were cultured on uncoated flasks. The 857933-349-R-J2-PDC line was cultured in 6C/Colon 1B media containing advanced DMEM/F-12 (Thermo Fisher Scientific, cat. 12634028), 10 mM HEPES (Thermo Fisher Scientific, cat. 15630080), 1X GlutaMAX supplement (Thermo Fisher Scientific, cat. 35050061), 0.1 mg/mL primocin (InvivoGen, San Diego, CA, cat. ant-pm-2), 10% defined fetal bovine serum, heat inactivated (HyClone Laboratories Inc., Logan, UT, cat. SH30070.03HI), 50% L-WRN conditioned media (ATCC, cat. CRL-3276), 1.25 mM N-Acetyl-L-cysteine (Sigma-Aldrich, cat. A9165), 10 mM nicotinamide (Sigma-Aldrich, cat. N0636), 1X B-27 supplement (Thermo Fisher Scientific, cat. 17504044), 1X N-2 supplement (Thermo Fisher Scientific, cat. […]
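Note: spheroids exposed to compounds for one week before readout.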
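Throughout, for viability, T/C: luminescence used as stand-in measure of viable cells; 100% = DMSO vehicle control viability.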

## Nc1ccn(C2OC(CO)C(O)C2(F)F)c(=O)n1 (stereo not drawn) + Nc1ccc(C#CCN(C(=O)Cc2ncc(C(F)(F)F)cc2C(F)(F)F)c2ccc(F)cc2)nn1
Curve of first compound, second compound 0.0316 µM
  IC50: < 31.6 nM
Curve of first compound, second compound 0.1 µM
  IC50: < 31.6 nM
Curve of first compound, second compound 0.316 µM
  IC50: < 31.6 nM
Curve of first compound, second compound 1 µM
  IC50: < 31.6 nM
Curve of first compound, second compound 3.16 µM
  IC50: < 31.6 nM
Curve of first compound, second compound 10 µM
  IC50: < 31.6 nM
Second compound 0.0316 µM, first compound 0.0316 µM
  viability, T/C: 31.7%
Second compound 0.0316 µM, first compound 0.1 µM
  viability, T/C: 6.95%
Second compound 0.0316 µM, first compound 0.316 µM
  viability, T/C: 5.45%
Second compound 0.0316 µM, first compound 1 µM
  viability, T/C: 4.21%
Second compound 0.0316 µM, first compound 3.16 µM
  viability, T/C: 5.5%
Second compound 0.0316 µM, first compound 10 µM
  viability, T/C: 4.63%
Second compound 0.1 µM, first compound 0.0316 µM
  viability, T/C: 33.3%
Second compound 0.1 µM, first compound 0.1 µM
  viability, T/C: 7.84%
Second compound 0.1 µM, first compound 0.316 µM
  viability, T/C: 5.21%
Second compound 0.1 µM, first compound 1 µM
  viability, T/C: 4.26%
Second compound 0.1 µM, first compound 3.16 µM
  viability, T/C: 4.99%
Second compound 0.1 µM, first compound 10 µM
  viability, T/C: 4.24%
Second compound 0.316 µM, first compound 0.0316 µM
  viability, T/C: 42.2%
Second compound 0.316 µM, first compound 0.1 µM
  viability, T/C: 6.2%
Second compound 0.316 µM, first compound 0.316 µM
  viability, T/C: 4.82%
Second compound 0.316 µM, first compound 1 µM
  viability, T/C: 3.94%
Second compound 0.316 µM, first compound 3.16 µM
  viability, T/C: 6.45%
Second compound 0.316 µM, first compound 10 µM
  viability, T/C: 4.74%
Second compound 1 µM, first compound 0.0316 µM
  viability, T/C: 25.8%
Second compound 1 µM, first compound 0.1 µM
  viability, T/C: 6.29%
Second compound 1 µM, first compound 0.316 µM
  viability, T/C: 5.24%
Second compound 1 µM, first compound 1 µM
  viability, T/C: 5.68%
Second compound 1 µM, first compound 3.16 µM
  viability, T/C: 5.32%
Second compound 1 µM, first compound 10 µM
  viability, T/C: 5.07%
Second compound 3.16 µM, first compound 0.0316 µM
  viability, T/C: 17.7%
Second compound 3.16 µM, first compound 0.1 µM
  viability, T/C: 6.56%
Second compound 3.16 µM, first compound 0.316 µM
  viability, T/C: 5.45%
Second compound 3.16 µM, first compound 1 µM
  viability, T/C: 5.13%
Second compound 3.16 µM, first compound 3.16 µM
  viability, T/C: 5.35%
Second compound 3.16 µM, first compound 10 µM
  viability, T/C: 5.11%
Second compound 10 µM, first compound 0.0316 µM
  viability, T/C: 14.4%
Second compound 10 µM, first compound 0.1 µM
  viability, T/C: 6.3%
Second compound 10 µM, first compound 0.316 µM
  viability, T/C: 5.2%
Second compound 10 µM, first compound 1 µM
  viability, T/C: 4.36%
Second compound 10 µM, first compound 3.16 µM
  viability, T/C: 4.56%
Second compound 10 µM, first compound 10 µM
  viability, T/C: 4.89%

## COc1ccc([C@@H](O)c2cc(-c3ncnc4cc(N5CCOCC5)ccc34)c(F)cc2Cl)nn1
Compound 0.0316 µM
  viability, T/C: 95.9% and 109% and 85.5%
Compound 0.1 µM
  viability, T/C: 113% and 97.3% and 88.6%
Compound 0.316 µM
  viability, T/C: 95.8% and 98.6% and 91.6%
Compound 1 µM
  viability, T/C: 95.5% and 92.4% and 92.3%
Compound 3.16 µM
  viability, T/C: 86% and 89.3% and 87.6%
Compound 10 µM
  viability, T/C: 40.4% and 53.2% and 40.9%
Curve of compound
  IC50: 7850 nM and > 10000 nM and 7990 nM

## C=CC(=O)N1CCN(c2nc(=O)n(-c3c(C)ccnc3C(C)C)c3nc(-c4c(O)cccc4F)c(F)cc23)C(C)C1 (stereo not drawn)
Compound 0.0316 µM
  viability, T/C: 88.5% and 95.7% and 91.3%
Compound 0.1 µM
  viability, T/C: 105% and 106% and 98.2%
Compound 0.316 µM
  viability, T/C: 97.6% and 105% and 93.3%
Compound 1 µM
  viability, T/C: 91% and 116% and 101%
Compound 3.16 µM
  viability, T/C: 98.9% and 108% and 113%
Compound 10 µM
  viability, T/C: 103% and 107% and 96.3%
Curve of compound
  IC50: > 10000 nM

## O=c1[nH]cc(F)c(=O)[nH]1
Compound 0.0316 µM
  viability, T/C: 87.3% and 92.5% and 87%
Compound 0.1 µM
  viability, T/C: 74.7% and 89% and 73.5%
Compound 0.316 µM
  viability, T/C: 33.6% and 48.5% and 30.5%
Compound 1 µM
  viability, T/C: 29.1% and 24.6% and 27.7%
Compound 3.16 µM
  viability, T/C: 24.6% and 24.4% and 26%
Compound 10 µM
  viability, T/C: 31.8% and 40.5% and 34.1%
Curve of compound
  IC50: 200 nM and 302 nM and 187 nM
